Calls of active or inactive are those of the source. No cut-off for these calls is given here.
How the values were obtained:
A498 = experiment: Anticancer activity against human A498 cells assessed as cell growth level at 10 uM after 48 hrs by sulforhodamine B assay; assay type: functional
Rattus norvegicus [1] = experiment: Effect on body weight in Wistar rat model of streptozotocin-induced diabetes at 30 mg/kg, po measured over 15 days; assay type: ADME, organism-based; design: dose 30 mg/kg, route oral; conditions: in vivo, 360 h
NCI-H23 = experiment: Anticancer activity against human NCI-H23 cells assessed as cell growth level at 10 uM after 48 hrs by sulforhodamine B assay; assay type: functional
Rattus norvegicus [2] = experiment: Increase in body weight in Wistar rat model of streptozotocin-induced diabetes at 30 mg/kg, po measured over 15 days; assay type: ADME, organism-based; design: dose 30 mg/kg, route oral; conditions: in vivo, 360 h
[3] = Anticancer activity against human NCI-ADR-RES cells assessed as cell growth level at 10 uM after 48 hrs by sulforhodamine B assay; assay type: functional
[4] = Anticancer activity against human HCT15 cells assessed as cell growth level at 10 uM after 48 hrs by sulforhodamine B assay; assay type: functional, HCT-15
IGROV-1 = experiment: Anticancer activity against human IGROV1 cells assessed as cell growth level at 10 uM after 48 hrs by sulforhodamine B assay; assay type: functional
MDA-MB-231 = experiment: Anticancer activity against human MDA-MB-231 cells assessed as cell growth level at 10 uM after 48 hrs by sulforhodamine B assay; assay type: functional
HOP-62 = experiment: Anticancer activity against human HOP62 cells assessed as cell growth level at 10 uM after 48 hrs by sulforhodamine B assay; assay type: functional
[5] = Anticancer activity against human RPMI8226 cells assessed as cell growth level at 10 uM after 48 hrs by sulforhodamine B assay; assay type: functional, RPMI-8226
U-251 = experiment: Anticancer activity against human U251 cells assessed as cell growth level at 10 uM after 48 hrs by sulforhodamine B assay; assay type: functional
CAKI-1 = experiment: Anticancer activity against human CAKI-1 cells assessed as cell growth level at 10 uM after 48 hrs by sulforhodamine B assay; assay type: functional
SF-268 = experiment: Anticancer activity against human SF268 cells assessed as cell growth level at 10 uM after 48 hrs by sulforhodamine B assay; assay type: functional
SR = experiment: Anticancer activity against human SR cells assessed as cell growth level at 10 uM after 48 hrs by sulforhodamine B assay; assay type: functional
NCI-H460 = experiment: Anticancer activity against human NCI-H460 cells assessed as cell growth level at 10 uM after 48 hrs by sulforhodamine B assay; assay type: functional
DU-145 = experiment: Anticancer activity against human DU145 cells assessed as cell growth level at 10 uM after 48 hrs by sulforhodamine B assay; assay type: functional
TK-10 = experiment: Anticancer activity against human TK10 cells assessed as cell growth level at 10 uM after 48 hrs by sulforhodamine B assay; assay type: functional
Rattus norvegicus [6] = experiment: Antidiabetic activity in Wistar rat model of streptozotocin-induced diabetes assessed as reduction in plasma glucose level at 30 mg/kg, po and dosage repeated for 15 days by GOD-POD method; assay type: functional, organism-based; design: dose 30 mg/kg

SMILES | Activity (A498) | Activity (Rattus norvegicus [1]) | Activity (NCI-H23) | Activity (Rattus norvegicus [2]) | Activity [3] | Activity [4] | Activity (IGROV-1) | Activity (MDA-MB-231) | Activity (HOP-62) | Activity [5] | Activity (U-251) | Activity (CAKI-1) | Activity (SF-268) | Activity (SR) | Activity (NCI-H460) | Activity (DU-145) | Activity (TK-10) | inhibition (Rattus norvegicus [6])
Cc1ccc(NC(=O)NS(=O)(=O)c2ccc(N3N=C(c4cccs4)CC3c3ccc(C)s3)cc2)cc1 (centres undefined) | 109% | Non-toxic | 98.53% | Toxic | 102.87% | 99.31% | 107.76% | 116.79% | 76.92% | 83.37% | 94.12% | 95.78% | 95.62% | 84.69% | 103.16% | 102.33% | 96.78% | 
COc1ccc(NC(=O)NS(=O)(=O)c2ccc(N3N=C(c4cccs4)CC3c3ccc(C)s3)cc2)cc1 (centres undefined) | 101.86% | Non-toxic | 97.55% |  | 103.44% | 102.46% | 108.05% | 113.39% | 81.02% | 95.29% | 98.07% | 94.74% | 97.85% | 75.83% | 108.95% | 105.62% | 96.03% | Active

— ChEMBL document CHEMBL3351675, “Novel benzenesulfonylureas containing thiophenylpyrazoline moiety as potential antidiabetic and anticancer agents” (Bioorg Med Chem Lett, 2014)
